Measured values from US20060099568A1, “Signals and molecular species involved in senescence” (priority 2002, published 2006).

Legend:
cellular cAMP = assay: measurement of cyclic AMP accumulation (cAMP binding assay); format: cell-based, human; conditions: near-senescent HDF (passage 26); 30 μg/ml LPA; 10 μM inhibitor
Method: FIG. 9 represents LPA-induced alteration of cellular cAMP content in presenescent and near-senescent fibroblasts. Subconfluent presenescent (passage 8, Pa 8) and near-senescent (passage 24, Pa 24) fibroblasts were serum-starved for 2 days and treated with LPA: A, 1-70 μg/ml LPA for 30 min; B, 30 μg/ml LPA for the indicated times. The level of cAMP in the acid extracts was measured by cAMP binding assay. The data represents an average of triplicate experiments.
Subconfluent near-senescent (passage 26, Pa 26) fibroblasts were serum-starved for 2 days and treated with 30 μg/ml LPA for the indicated times in the absence or presence of 10 μM PKC inhibitor bisindolylmaleiamide (bIM). The level of cAMP in the acid extracts was measured by cAMP binding assay. The data represents an average of triplicate experiments.
Cells grown on a 12 well-plate were serum-starved by incubating with SFM for 2 days. After the cells were equilibrated in the fresh SFM medium for 1 hour, they were treated with LPA as described in the figure. The reaction was terminated by removing the medium and by adding 2.5 M perchloric acid. The acid extract was stored at −20° C. until use. The acid extract was neutralized with 4.2 M KOH and the cAMP content was determined by competitive binding with [^3H]cAMP to the cAMP binding protein, RIα of cAMP-dependent protein kinase, as described by Jang and Juhnn (2001). After the extraction, cells were lyzed with 0.1 N NaOH and analyzed for protein content using the Bradford protein assay reagent. The cAMP content was normalized to the amount of acid-insoluble protein.

[1] = tested on: human diploid fibroblasts; assay: growth factor-stimulated signaling events in human diploid fibroblasts; format: cell-based
Method: Foreskin fibroblasts were isolated as described by Boyce and Ham (1983). Cells were cultured in Dulbecco's modified Eagle's medium containing 10% fetal bovine serum and antibiotics. The primary culture contained smaller and more closely packed cells during the early stage of the culture. Cells with less than 10 passage were often considered as presenescent cells. As the cells were passaged, they became larger and they have a slower growth rate at passage 10-20. Cells from over 27 passages were completely growth-arrested and developed characteristic appearance designated previously as replicative senescence (Yeo et al., 2000a and b). In order to confirm that cells were senescent, we either examined the activity of beta-galactosidase or stained with X-gal, a membrane permeable substrate of the enzyme, which produces a blue insoluble product inside of the cells. The number of cells stained with X-gal increased with age and most of cells from passage 27-28 were stained. Cultures of over 23-28 passages have also shown the cessation of cell growth and senescence-like morphological changes, but only 70-80% of cells were stained with X-gal. These were termed “near-senescent”. Although the near-senescent cultures were not completely homogeneous, we compared the changes in these cultures to those in presenescent cultures of passage 6-10. In order to determine the growth factor-stimulated signaling events, cells were grown for 1-2 days to 60-70% sub-confluency in the culture medium, and then serum-starved to become quiescent by incubating with serum free medium (SFM) for 2 days. The quiescent cells were treated with various agonists, as described in the figure legends. To label cells, radioactive chemicals were added during the incubation with SFM.
Primary human diploid fibroblasts, isolated from newborn foreskins, were used to study the mechanism of reduced response to growth factor stimulation with aging. These cells were maintained and passaged as described previously (Yeo et al., 2000a). […] Compared to their presenescent counterparts, the senescent and near-senescent cells were larger and grew to lower density, as has been observed in other cell systems. Here the present inventors report upon the differential changes in the signaling events evoked by platelet-derived growth factor (PDGF) and lysophosphatidic acid (LPA). PDGF elicits signaling events over a concentration range of 10-100 ng/ml, whereas LPA stimulates the hydrolysis of phospholipids, Ca^2+ mobilization, and actin polymerization over a concentration range of 0.1-10 μg/ml in human diploid fibroblasts. In order to compare their cellular responses, we treated presenescent and senescent (or near-senescent) cells with PDGF and LPA at a maximally responsive dose of 50 ng/ml and 1 μg/ml, respectively.

[2] = tested on: human diploid fibroblasts; assay: measurement of cytosolic free [Ca2+]i by confocal microscopy (fluo-3-AM); format: cell-based; conditions: PDGF 50 ng/ml, LPA 1 μg/ml
Method: FIG. 1 represents differential changes in growth factor-stimulated calcium release in senescent fibroblasts. Presenescent (passage 7: A and C) and senescent (passage 27: B and D) fibroblasts were grown on coverslips, serum-starved, and incubated with 4 μM fluo-3-AM in serum-free medium for 40 min. The stained cells were treated with […] of platelet-derived growth factor (A and B) or 1 μg/ml of lysophosphatidic acid (C and D) via a micro-perfusion system for the real-time measurement of signaling molecules, and laser scanning confocal microscopy. The scanned images were analyzed for changes in intracellular Ca^2+ at the single cell level and results expressed as relative fluorescence intensity (RFI).
[Ca^2+]i was measured using a laser scanning confocal microscope, as described by Junn et al. (2000). Quiescent fibroblasts grown on glass cover slips in a 6-well plate were stained with 4 μM of fluo-3-acetoxymethyl ester (fluo-3-AM) in phenol red-free medium without serum for 40 min and washed three times with the serum-free medium. Stained cells on each cover slip were mounted on a perfusion chamber (MPS-1000, Seoul Engineering, Korea), placed under the confocal laser scanning microscope (Carl Zeiss LSM 410), and scanned every 5 sec with a 488 nm excitation argon laser and a 515 nm long pass emission filter. Growth factors were added to the cells using an automatic pumping system (self-designed). All scanned images were analyzed for [Ca ^2+]i changes at the single cell level using “Time Series Program” for a real-time measurement of relative fluorescence intensity (RFI) which is installed in the Carl Zeiss LSM 410 confocal system.

[3] = tested on: human diploid fibroblasts; assay: confocal microscopic measurement of actin polymerization (NBD-phallacidin); format: cell-based; conditions: PDGF 50 ng/ml, LPA 1 μg/ml
Method: FIG. 2 represents differential changes in growth factor-induced actin polymerization in senescent fibroblasts. […] The cells were fixed, permeabilized, and stained with NBD-phallacidin, then photographed.
F-actin was stained as described by Shin et al. (1999). Quiescent cells grown on glass cover slips in multi-well culture plates were treated with agonists for 30 min, and the cells were fixed with 3.7% paraformaldehyde in PBS for 30 min on ice. Following permeabilization with 0.2% Triton X-100 in PBS for 15 min on ice, the cells were stained with […] NBD-phallacidin in PBS for 30 min at RT. The stained cells were washed three times with PBS for 15 min and the cover slip was mounted on a slide glass with Gelvatol, which was prepared by mixing 100 ml of 23% polyvinyl alcohol in PBS with 50 ml glycerol. The cells were then observed under a confocal fluorescence microscope.

phospholipase D (PLD) = assay: phosphatidylbutanol formation as an indication of phospholipase D activity; format: cell-based, human; conditions: passage 24 near-senescent cells vs presenescent; 0.5% 1-butanol, 20 min
Method: Subconfluent presenescent (passage 8: Pa 8) and near-senescent (passage 24: Pa 24) cells were serum-starved and labeled with [^3H]myristic acid overnight. […] A representative experiment of three performed in duplicate is presented.
Quiescent cells were labeled overnight with [^3H]myristic acid (1 μCi/ml) and then washed with PBS. Phosphatidylbutanol formation was measured as described by Yeo et al. (1994). Cells were preincubated with 0.5% (v/v) 1-butanol for 15 min and then treated with agonists for 20 min in the presence of 0.5% 1-butanol. Total lipids were extracted and separated by thin layer chromatography. The band of phosphatidylbutanol was scraped off the plates and its radioactivity was counted in a liquid scintillation cocktail.

[4] = tested on: human diploid fibroblasts; assay: DNA synthesis, [3H]thymidine incorporation; format: cell-based; conditions: for increase in [3H]thymidine incorporation: 50-100 ng/ml PDGF
Method: FIG. 5 represents reduction of growth factor-induced thymidine incorporation in near-senescent fibroblasts. […] The amount of [^3H]thymidine incorporated into DNA over 4 hrs was measured as described. The data represents an average of 3 counts in cpm. A representative experiment of the three is presented in A. Fold increase over the untreated control was calculated and plotted in B.
FIG. 18 represents changes in LPA-induced thymidine incorporation and cell proliferation in near-senescent fibroblasts versus presenescent fibroblasts. Subconfluent presenescent (passage 8, Pa 8) and near-senescent (passage 24, Pa 24) fibroblasts were serum-starved for 2 days and treated with LPA (1-70 μg/ml) for 16 hrs. The amount of [^3H]thymidine incorporated into DNA over 4 hrs was measured as described. The data represents an average of 3 counts in cpm in each independent experiments. A representative experiment of the three is presented in A. Converted fold increase over the untreated control was calculated and plotted in B.
Quiescent cells were labeled with [^3H]thymidine (0.5 μCi/ml) for 4 hrs and the […] radioactive thymidine was removed by washing with PBS. DNA was precipitated with 10% TCA and lysed in 0.5N NaOH. The radioactivity in neutralized lysates was counted in a liquid scintillation cocktail.

Phospholipase C (PLC) = conditions: near-senescent cells (passage 23) vs presenescent (passage 6); PDGF 50 ng/ml, LPA 1 μg/ml, 20 min, 20 mM LiCl
HDF [5] = assay: viable cell counting (Trypan blue) with adenylyl cyclase inhibitor and/or LPA; format: cell-based, human; conditions: senescent cell culture; LPA plus adenylyl cyclase inhibitor (SQ22536 300 μM)
Method: O and Y denote old and young cell, respectively.
Young or old HDF (passage 8-11) were treated with LPA (30 μM), dbcAMP (cAMP analog, 1 mM, Sigma), adenylyl cyclase inhibitor, SQ22536 (300 μM, Calbiochem) and their combinations for 30-60 min at 37° C. The cells treated were stained with Trypan blue (GiBco/BRL) for 10 min at 37° C. and only cells without blue color were then counted under hemacytometer.

HDF [6] = assay: flow cytometry (FACS, propidium iodide) of cell cycle progression; format: cell-based, human; conditions: senescent cell
Method: FIG. 21 represents the results of FACS analysis evaluating the effect of LPA on cell cycle progression in senescent cells in connection with the affection of cAMP control. Con denotes control group and ACI is adenylyl cyclase inhibitor.
In addition, the treated cells were analyzed using flow cytometry. The treated cells were harvested and treated with […] of 0.1% trypsin for 30 sec, after which centrifugation was performed at 4° C. for 10 min at 1000 rpm. Then, the cell concentration was adjusted to 1-3×10^6 cells/ml in sample buffer. The sample buffer was prepared in such a manner that 1 g glucose in 1 L PBS without Ca^2+ and Mg^2+ was filtered through a 0.22 μm filter. The solutions containing cells was centrifuged at 4° C. for 10 min at 1000 rpm and ice-cold 70% ethanol was added dropwise to pellet. The sample tube was capped, allowed to fix in the ethanol overnight at 4° C., vortexed briefly, and then centrifuged for 5 min at 3000 rpm. Thereafter, ethanol was discarded and PI (propidium iodide) staining solution (0.5 ml 20× propidium iodide stock solution (50 μg/ml final), 1000 kunits RNase A (100 U/ml final) and 10 ml sample buffer) was added into the sample tube. Finally, the sample was analyzed within 24 hr in a […] (FACS Calibur, Beckton-Dikinson).

[7] = near-senescent cells (passage 24)

bisindolylmaleiamide [bis-indolylmaleiamide]
cAMP content in LPA-stimulated cells in presence of PKC inhibitor (cellular cAMP): inhibition of cAMP accumulation

PDGF
concentration range over which signaling events are elicited ([1]; human diploid fibroblasts): 10 to 100 ng/mL
maximally responsive dose ([1]; presenescent and senescent (or near-senescent) cells): 50 ng/mL
cytosolic Ca2+ levels ([2]; presenescent fibroblasts (passage 7)): rapid increase
Ca2+ response in senescent cells relative to presenescent ([2]; senescent cells (passage 27)): greatly attenuated
actin polymerization (stress fibers) ([3]; presenescent fibroblasts (passage 10)): enhanced the formation of stress fibers
agonist-induced actin polymerization in senescent cells ([3]; senescent cells (passage 27)): almost completely blocked
reduction of PLD activity (phospholipase D (PLD)): 80%
agonist-induced DNA synthesis ([3H]thymidine incorporation) in near-senescent cells vs presenescent [4, 7]: greatly reduced
increase in [3H]thymidine incorporation [4, 7]: 1.3 fold
increase in [3H]thymidine incorporation ([4]; presenescent cells (passage 8)): 7-8 fold
concentration range of very strong agonism for [3H]thymidine incorporation ([4]; presenescent fibroblasts): 10 to 100 ng/mL
agonist-stimulated inositol phosphates (IPs) production (Phospholipase C (PLC)): dramatically reduced

Nc1ncnc2c1ncn2C1CCCO1 (stereo not shown) [adenylyl cyclase inhibitor]
viable cell number (HDF [5]): dramatically increased
number of cells in S phase (HDF [6]; adenylyl cyclase inhibitor alone): dramatically increased
number of cells in S phase (HDF [6]; co-treatment of adenylyl cyclase inhibitor with LPA): more enhanced
